Experimental data reported in ChEMBL document CHEMBL5325463, “Novel spiroindoline quinazolinedione derivatives as anticancer agents and potential FLT3 kinase inhibitors” (Bioorg Med Chem, 2023).

How the values were obtained:
EBC-1 = assay: cells; details: Homo sapiens, EBC-1, 72 h
Description: Antiproliferative activity against human EBC-1 cells incubated for 3 days by MTT assay

A549 = assay: cells; details: Homo sapiens, A549, 72 h
Description: Antiproliferative activity against human A549 cells incubated for 3 days by MTT assay

HT-29 = assay: cells; details: Homo sapiens, HT-29, 72 h
Description: Antiproliferative activity against human HT-29 cells incubated for 3 days by MTT assay

K562 [1] = assay: cells; details: Homo sapiens, K562, 72 h
Description: Antiproliferative activity against human K562 cells incubated for 3 days by MTT assay

K562 [2] = assay: Induction of cell cycle arrest in human K562 cells assessed as accumulation at sub G1 phase at 10 uM incubated for 48 hrs by Rnase/PI staining based flow cytometry (reference value: 0.92 +/- 0.12); assay type: functional
K562 [3] = assay: Induction of cell cycle arrest in human K562 cells assessed as accumulation at G0/G1 phase at 10 uM incubated for 48 hrs by Rnase/PI staining based flow cytometry (reference value: 57.34 +/- 3.14); assay type: functional
K562 [4] = assay: Induction of cell cycle arrest in human K562 cells assessed as accumulation at S phase at 10 uM incubated for 48 hrs by Rnase/PI staining based flow cytometry (reference value: 17.95 +/- 3.42); assay type: functional
K562 [5] = assay: Induction of cell cycle arrest in human K562 cells assessed as accumulation at G2/M phase at 10 uM incubated for 48 hrs by Rnase/PI staining based flow cytometry (reference value: 23.78 +/- 6.09); assay type: functional
K562 [6] = assay: Induction of cell cycle arrest in human K562 cells assessed as accumulation at sub G1 phase at 50 uM incubated for 48 hrs by Rnase/PI staining based flow cytometry (reference value: 0.92 +/- 0.12); assay type: functional
K562 [7] = assay: Induction of cell cycle arrest in human K562 cells assessed as accumulation at G0/G1 phase at 50 uM incubated for 48 hrs by Rnase/PI staining based flow cytometry (reference value: 57.34 +/- 3.14); assay type: functional
K562 [8] = assay: Induction of cell cycle arrest in human K562 cells assessed as accumulation at S phase at 50 uM incubated for 48 hrs by Rnase/PI staining based flow cytometry (reference value: 17.95 +/- 3.42); assay type: functional
K562 [9] = assay: Induction of cell cycle arrest in human K562 cells assessed as accumulation at G2/M phase at 50 uM incubated for 48 hrs by Rnase/PI staining based flow cytometry (reference value: 23.78 +/- 6.09); assay type: functional
[10] = target: Mast/stem cell growth factor receptor Kit (Homo sapiens) (UniProt P10721); assay: Inhibition of KIT (unknown origin) at 10 uM by radiometric assay relative to control
[11] = target: Vascular endothelial growth factor receptor 2 (Homo sapiens) (UniProt P35968); assay: Inhibition of KDR (unknown origin) at 10 uM by radiometric assay relative to control
Sequence of Vascular endothelial growth factor receptor 2 (Homo sapiens) (P35968 whole entry): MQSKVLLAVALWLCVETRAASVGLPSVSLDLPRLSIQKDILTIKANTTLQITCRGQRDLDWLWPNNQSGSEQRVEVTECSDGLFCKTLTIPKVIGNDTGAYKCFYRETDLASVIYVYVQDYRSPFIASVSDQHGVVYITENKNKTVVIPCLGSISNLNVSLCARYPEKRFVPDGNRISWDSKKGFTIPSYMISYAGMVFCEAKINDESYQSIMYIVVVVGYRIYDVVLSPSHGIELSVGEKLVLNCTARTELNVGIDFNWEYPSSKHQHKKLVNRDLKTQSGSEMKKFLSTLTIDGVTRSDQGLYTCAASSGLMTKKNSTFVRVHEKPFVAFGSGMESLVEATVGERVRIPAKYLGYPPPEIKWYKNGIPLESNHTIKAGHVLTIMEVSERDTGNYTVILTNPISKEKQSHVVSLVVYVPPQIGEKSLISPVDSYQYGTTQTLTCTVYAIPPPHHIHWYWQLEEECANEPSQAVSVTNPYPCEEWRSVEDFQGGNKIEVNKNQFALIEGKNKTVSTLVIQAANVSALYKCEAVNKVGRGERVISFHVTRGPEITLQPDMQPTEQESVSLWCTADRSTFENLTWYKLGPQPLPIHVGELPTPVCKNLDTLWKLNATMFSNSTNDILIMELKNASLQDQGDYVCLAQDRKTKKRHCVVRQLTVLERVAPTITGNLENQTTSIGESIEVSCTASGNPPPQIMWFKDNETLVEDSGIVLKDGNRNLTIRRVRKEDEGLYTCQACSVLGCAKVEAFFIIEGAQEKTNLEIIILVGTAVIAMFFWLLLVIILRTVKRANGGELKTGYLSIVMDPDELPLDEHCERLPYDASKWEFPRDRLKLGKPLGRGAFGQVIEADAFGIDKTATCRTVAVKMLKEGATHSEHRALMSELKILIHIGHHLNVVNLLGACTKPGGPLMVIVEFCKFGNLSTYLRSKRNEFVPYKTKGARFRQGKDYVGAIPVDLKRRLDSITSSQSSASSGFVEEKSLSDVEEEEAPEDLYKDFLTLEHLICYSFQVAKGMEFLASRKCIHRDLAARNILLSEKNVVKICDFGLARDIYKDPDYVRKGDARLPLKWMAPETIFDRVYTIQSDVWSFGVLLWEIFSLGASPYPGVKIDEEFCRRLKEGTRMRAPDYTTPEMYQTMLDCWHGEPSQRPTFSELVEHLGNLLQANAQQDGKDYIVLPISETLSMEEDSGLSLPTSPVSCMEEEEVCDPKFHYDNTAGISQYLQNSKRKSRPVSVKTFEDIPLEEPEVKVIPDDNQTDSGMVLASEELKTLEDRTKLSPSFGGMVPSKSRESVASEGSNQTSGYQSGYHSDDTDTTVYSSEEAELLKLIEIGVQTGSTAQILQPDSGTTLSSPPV

[12] = target: Mitogen-activated protein kinase 3 (Homo sapiens) (UniProt P27361); assay: Inhibition of MAPK3 (unknown origin) at 10 uM by radiometric assay relative to control
Sequence of Mitogen-activated protein kinase 3 (Homo sapiens) (P27361 whole entry): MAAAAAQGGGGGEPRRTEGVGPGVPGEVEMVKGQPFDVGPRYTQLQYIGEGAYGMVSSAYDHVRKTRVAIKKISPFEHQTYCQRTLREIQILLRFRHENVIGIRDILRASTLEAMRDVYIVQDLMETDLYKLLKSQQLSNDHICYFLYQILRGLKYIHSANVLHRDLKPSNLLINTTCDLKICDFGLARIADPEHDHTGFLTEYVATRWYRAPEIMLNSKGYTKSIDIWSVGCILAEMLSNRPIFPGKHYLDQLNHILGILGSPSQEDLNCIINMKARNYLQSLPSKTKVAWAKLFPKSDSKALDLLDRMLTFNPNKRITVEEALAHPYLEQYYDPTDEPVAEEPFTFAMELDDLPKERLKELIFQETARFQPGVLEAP

[13] = target: Dual specificity mitogen-activated protein kinase kinase 1 (Homo sapiens) (UniProt Q02750); assay: Inhibition of MAP2K1 (unknown origin) at 10 uM by radiometric assay relative to control
Sequence of Dual specificity mitogen-activated protein kinase kinase 1 (Homo sapiens) (Q02750 whole entry): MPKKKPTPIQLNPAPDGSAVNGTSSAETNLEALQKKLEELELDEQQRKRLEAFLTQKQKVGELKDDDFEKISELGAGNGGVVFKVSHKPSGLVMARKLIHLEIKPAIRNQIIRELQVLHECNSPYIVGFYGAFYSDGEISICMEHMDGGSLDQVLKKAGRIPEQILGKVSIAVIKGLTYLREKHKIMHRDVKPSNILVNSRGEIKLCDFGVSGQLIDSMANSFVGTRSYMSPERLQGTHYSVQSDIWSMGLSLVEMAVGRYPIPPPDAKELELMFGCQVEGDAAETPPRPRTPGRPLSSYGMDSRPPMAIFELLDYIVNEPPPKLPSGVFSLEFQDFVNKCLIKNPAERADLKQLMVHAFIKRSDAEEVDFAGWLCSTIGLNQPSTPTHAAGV

[14] = target: Hepatocyte growth factor receptor (Homo sapiens) (UniProt P08581); assay: Inhibition of MET (unknown origin) at 10 uM by radiometric assay relative to control
[15] = target: Macrophage-stimulating protein receptor (Homo sapiens) (UniProt Q04912); assay: Inhibition of MST1R (unknown origin) at 10 uM by radiometric assay relative to control
[16] = target: Platelet-derived growth factor receptor alpha (Homo sapiens) (UniProt P16234); assay: Inhibition of PDGFRA (unknown origin) at 10 uM by radiometric assay relative to control
Sequence of Platelet-derived growth factor receptor alpha (Homo sapiens) (P16234 whole entry): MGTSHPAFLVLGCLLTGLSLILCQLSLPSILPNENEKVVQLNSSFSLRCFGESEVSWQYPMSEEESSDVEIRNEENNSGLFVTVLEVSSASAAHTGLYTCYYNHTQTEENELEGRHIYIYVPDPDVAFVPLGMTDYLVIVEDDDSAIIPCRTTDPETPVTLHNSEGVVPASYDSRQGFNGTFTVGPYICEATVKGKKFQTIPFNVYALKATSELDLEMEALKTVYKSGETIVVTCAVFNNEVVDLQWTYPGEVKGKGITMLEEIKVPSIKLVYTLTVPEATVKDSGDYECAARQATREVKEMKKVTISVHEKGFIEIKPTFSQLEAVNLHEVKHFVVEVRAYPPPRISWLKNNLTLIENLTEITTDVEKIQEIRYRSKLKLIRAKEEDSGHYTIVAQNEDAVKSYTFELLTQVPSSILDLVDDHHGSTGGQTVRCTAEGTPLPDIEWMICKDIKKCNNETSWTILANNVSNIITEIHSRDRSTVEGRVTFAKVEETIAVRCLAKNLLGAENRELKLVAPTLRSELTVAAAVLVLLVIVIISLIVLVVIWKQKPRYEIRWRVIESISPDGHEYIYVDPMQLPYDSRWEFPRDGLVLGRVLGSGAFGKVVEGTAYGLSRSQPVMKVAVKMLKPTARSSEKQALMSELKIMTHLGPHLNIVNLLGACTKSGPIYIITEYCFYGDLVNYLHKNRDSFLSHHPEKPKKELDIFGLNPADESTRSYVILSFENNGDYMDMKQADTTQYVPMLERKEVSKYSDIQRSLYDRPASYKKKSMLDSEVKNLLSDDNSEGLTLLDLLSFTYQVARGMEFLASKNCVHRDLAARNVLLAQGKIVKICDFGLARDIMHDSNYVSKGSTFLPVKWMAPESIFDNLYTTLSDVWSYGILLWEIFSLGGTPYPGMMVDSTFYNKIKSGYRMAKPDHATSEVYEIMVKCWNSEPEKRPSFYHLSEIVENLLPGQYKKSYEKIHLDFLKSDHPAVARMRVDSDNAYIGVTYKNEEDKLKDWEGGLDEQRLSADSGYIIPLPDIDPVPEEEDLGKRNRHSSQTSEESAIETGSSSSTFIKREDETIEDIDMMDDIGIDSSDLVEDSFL

[17] = target: Platelet-derived growth factor receptor beta (Homo sapiens) (UniProt P09619); assay: Inhibition of PDGFRB (unknown origin) at 10 uM by radiometric assay relative to control
Sequence of Platelet-derived growth factor receptor beta (Homo sapiens) (P09619 whole entry): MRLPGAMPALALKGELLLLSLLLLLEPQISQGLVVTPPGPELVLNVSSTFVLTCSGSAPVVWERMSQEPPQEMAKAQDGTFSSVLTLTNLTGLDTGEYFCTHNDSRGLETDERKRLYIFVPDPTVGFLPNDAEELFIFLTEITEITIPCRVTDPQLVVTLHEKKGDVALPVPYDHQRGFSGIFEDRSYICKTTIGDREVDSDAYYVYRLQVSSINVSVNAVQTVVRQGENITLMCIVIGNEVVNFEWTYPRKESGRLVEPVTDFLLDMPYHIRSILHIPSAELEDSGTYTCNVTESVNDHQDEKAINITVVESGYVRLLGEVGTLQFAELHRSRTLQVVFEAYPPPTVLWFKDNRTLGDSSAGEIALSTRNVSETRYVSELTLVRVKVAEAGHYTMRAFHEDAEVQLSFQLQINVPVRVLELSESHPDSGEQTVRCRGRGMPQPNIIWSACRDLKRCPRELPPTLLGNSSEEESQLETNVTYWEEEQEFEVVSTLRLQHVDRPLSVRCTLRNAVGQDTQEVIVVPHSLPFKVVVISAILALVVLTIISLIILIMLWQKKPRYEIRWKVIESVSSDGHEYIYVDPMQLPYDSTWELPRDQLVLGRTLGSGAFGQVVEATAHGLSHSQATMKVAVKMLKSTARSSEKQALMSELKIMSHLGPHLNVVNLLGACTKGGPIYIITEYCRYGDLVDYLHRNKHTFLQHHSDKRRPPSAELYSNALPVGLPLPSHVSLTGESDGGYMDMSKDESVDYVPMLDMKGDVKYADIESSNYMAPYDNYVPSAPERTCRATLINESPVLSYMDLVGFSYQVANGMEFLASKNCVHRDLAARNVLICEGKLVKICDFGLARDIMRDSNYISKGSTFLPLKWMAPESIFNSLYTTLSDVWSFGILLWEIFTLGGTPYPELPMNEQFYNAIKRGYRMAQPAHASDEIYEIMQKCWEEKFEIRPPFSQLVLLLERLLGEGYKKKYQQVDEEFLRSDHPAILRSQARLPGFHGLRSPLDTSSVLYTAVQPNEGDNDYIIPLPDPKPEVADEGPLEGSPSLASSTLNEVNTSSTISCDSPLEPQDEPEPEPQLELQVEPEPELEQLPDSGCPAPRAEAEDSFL

[18] = target: Receptor-type tyrosine-protein kinase FLT3 (Homo sapiens) (UniProt P36888); assay: Inhibition of human FLT3 at 10 uM by radiometric assay relative to control
[19] = tested on: T1, Receptor-type tyrosine-protein kinase FLT3 (Homo sapiens), P36888 [D835Y]; assay: Inhibition of human FLT3 D835Y mutant at 10 uM by radiometric assay relative to control
T1 sequence (whole entry): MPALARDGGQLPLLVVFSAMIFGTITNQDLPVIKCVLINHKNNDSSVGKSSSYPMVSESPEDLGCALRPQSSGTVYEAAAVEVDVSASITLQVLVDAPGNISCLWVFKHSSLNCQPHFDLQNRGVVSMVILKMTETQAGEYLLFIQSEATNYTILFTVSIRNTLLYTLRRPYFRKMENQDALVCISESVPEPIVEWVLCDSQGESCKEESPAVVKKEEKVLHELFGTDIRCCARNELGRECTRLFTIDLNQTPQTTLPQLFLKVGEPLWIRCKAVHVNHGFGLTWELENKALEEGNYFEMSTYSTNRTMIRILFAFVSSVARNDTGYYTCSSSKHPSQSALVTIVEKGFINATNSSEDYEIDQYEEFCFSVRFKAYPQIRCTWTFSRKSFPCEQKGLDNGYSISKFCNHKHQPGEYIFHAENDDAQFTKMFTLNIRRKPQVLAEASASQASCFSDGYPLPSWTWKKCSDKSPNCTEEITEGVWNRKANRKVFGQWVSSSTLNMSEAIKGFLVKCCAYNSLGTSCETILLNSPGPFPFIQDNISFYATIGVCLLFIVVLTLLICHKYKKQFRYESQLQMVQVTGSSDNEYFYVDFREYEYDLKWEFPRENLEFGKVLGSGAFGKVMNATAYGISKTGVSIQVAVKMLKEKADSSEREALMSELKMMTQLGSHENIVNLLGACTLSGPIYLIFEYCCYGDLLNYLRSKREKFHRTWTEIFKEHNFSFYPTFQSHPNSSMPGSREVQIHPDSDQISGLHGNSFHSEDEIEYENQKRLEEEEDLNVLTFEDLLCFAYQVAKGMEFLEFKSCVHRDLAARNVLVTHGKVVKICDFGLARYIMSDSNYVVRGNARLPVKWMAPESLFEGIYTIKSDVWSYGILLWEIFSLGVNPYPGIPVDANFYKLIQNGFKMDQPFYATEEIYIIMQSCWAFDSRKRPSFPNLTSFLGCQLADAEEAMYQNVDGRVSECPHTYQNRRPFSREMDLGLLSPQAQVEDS

[20] = target: Receptor-type tyrosine-protein kinase FLT3 (Homo sapiens) (UniProt P36888); assay: Inhibition of human FLT3 at 25 uM by radiometric assay relative to control
[21] = tested on: T1, Receptor-type tyrosine-protein kinase FLT3 (Homo sapiens), P36888 [D835Y]; assay: Inhibition of human FLT3 D835Y mutant at 25 uM by radiometric assay relative to control

Row | SMILES | IC50 (EBC-1) [µM] | IC50 (A549) [µM] | IC50 (HT-29) [µM] | IC50 (K562 [1]) [µM] | further results
1 | CCCCCN1C(=O)C2(NC(=O)c3cc(Br)cc(Br)c3N2)c2ccccc21 (centres undefined) | 24.7 | 47.1 | 51.9 | > 100 | –
2 | O=C1NC2(Nc3c(Br)cc(Br)cc31)C(=O)N(Cc1ccc(Cl)c(Cl)c1)c1ccccc12 (centres undefined) | 19.8 | > 100 | 24.3 | > 100 | –
3 | O=C1NC2(Nc3c(Br)cc(Br)cc31)C(=O)N(Cc1ccc(Cl)cc1)c1ccccc12 (centres undefined) | 10.4 | 26.9 | 12.5 | 13.8 | Activity (K562 [2]): 1.04%; Activity (K562 [3]): 57.29%; Activity (K562 [4]): 17.89%; Activity (K562 [5]): 23.78%; Activity (K562 [6]): 1.41%; Activity (K562 [7]): 50.3%; Activity (K562 [8]): 21.06%; Activity (K562 [9]): 27.23%; inhibition [10]: 1%; inhibition [11]: 12%; inhibition [12]: -4%; inhibition [13]: -6%; inhibition [14]: 12%; inhibition [15]: 2%; inhibition [16]: 5%; inhibition [17]: -1%; inhibition [18]: 18%; inhibition [19]: 5%; inhibition [20]: 19%; inhibition [21]: -6%
4 | O=C1NC2(Nc3c(Br)cc(Br)cc31)C(=O)N(Cc1ccc(F)cc1)c1ccccc12 (centres undefined) | 34.6 | 45.4 | > 100 | > 100 | –
5 | O=C1NC2(Nc3ccccc31)C(=O)N(Cc1ccc(Br)cc1)c1ccccc12 (centres undefined) | 38.7 | 39.7 | 71.9 | 19.9 | –
6 | COc1cc2nccc(Oc3ccc(NC(=O)C4(C(=O)Nc5ccc(F)cc5)CC4)cc3)c2cc1OC [CABOZANTINIB] | 0.0592 | 16.2 | 3.7 | 1.9 | –
7 | CC(C)(C)c1ccc(CN2C(=O)C3(NC(=O)c4cc(Br)cc(Br)c4N3)c3ccccc32)cc1 (centres undefined) | 19.6 | 45.5 | > 100 | > 100 | –
8 | Cc1ccc(CN2C(=O)C3(NC(=O)c4ccccc4N3)c3ccccc32)cc1 (centres undefined) | 20.3 | 26.2 | 29.2 | – | –
9 | CCCCCN1C(=O)C2(NC(=O)c3ccccc3N2)c2ccccc21 (centres undefined) | > 100 | > 100 | > 100 | > 100 | –
10 | CCN1C(=O)C2(NC(=O)c3ccccc3N2)c2ccccc21 (centres undefined) | > 100 | > 100 | 28.5 | 50.4 | –
